From US20080287323A1, “Treatment and Reuse of Oilfield Produced Water” (priority 2007, published 2008)

Tested on: bacteria and/or enzymes in the produced water
Test: Fann 50 viscosity test of guar or CMHPG gels prepared from pretreated oilfield produced water
Details: similar borate-crosslinked guar gels versus "as is" produced water
Description: Example of produced water treated with zirconyl chloride: Produced water PW4 was treated with 0.36 mL/L of zirconyl chloride solution M14. The mixture was stirred and then let stand for 30 minutes or more. Gels comprising borate-crosslinked guar were prepared with 8.8 mL/L M1, 6.0 mL/L M10, and 2.5 mL/L M11, in both the untreated and the M14-treated PW4 produced water. The viscosities of the fluids were tested with a Fann 50 viscometer.
Example of produced water treated with zirconium tetrachloride (ZTC): Produced water PW5-1 was treated with 1 mL/L of an aqueous solution of ZTC (containing an equivalent of 7.0 wt % ZrO2), stirred and then let stand for 1 day. Gels comprising borate-crosslinked guar were prepared with 8.8 mL/L M1, 6.0 mL/L M10 and 2.5 mL/L M11, using the treated (ES5) and untreated water (PW5-1, as is), and the viscosity of the fluids was tested with a Fann 50 viscometer at 93° C.
Examples of produced water treated with other inorganic heavy metal ions: Gels of borate-crosslinked guar were prepared from 8.8 mL/L M1, 6.0 mL/L M10 and 2.5 mL/L M11, added to two samples of BaCl2-treated PW6-1 produced water—0.28 g/L BaCl2 in ES6 and 3.4 g/L BaCl2 in ES7, followed by individual stirring for 30 minutes. […]

With `[Cl][Cu][Cl]` [CuCl2] the “effect of produced water treatment on gel viscosity (in words)” value was “did not obviously improve the viscosity”.
